# Data taken from ChEMBL document CHEMBL2146470, “Novel Carboxamide-Based Allosteric MEK Inhibitors: Discovery and Optimization Efforts toward XL518 (GDC-0973)” (ACS Med Chem Lett, 2012).
# Tests used:
# [1] = Clearance in Sprague-Dawley rat at 5 mg/kg, po; type: ADME, organism-based; set-up: dose 5 mg/kg, route oral; settings: in vivo
# [2] = tested on: Mus musculus; experiment: Inhibition of MEK-mediated ERK T202/Y204 phosphorylation in nude NCr mouse brain xenografted with human MDA-MB-231T cells at 30 mg/kg, po after 24 hrs by immunoblotting; type: functional
# [3] = Drug metabolism in rat liver microsomes at 15 uM after 30 mins; type: ADME, Microsome; settings: read-out: Drug metabolism
# [4] = Drug uptake in brain of nude NCr mouse xenografted with human MDA-MB-231T cells at 30 mg/kg, po measured after 24 hrs by LC-MS analysis; type: ADME, organism-based; set-up: dose 30 mg/kg, route oral; settings: read-out: Drug uptake
# [5] = Half life in Sprague-Dawley rat at 5 mg/kg, po; type: ADME, organism-based; set-up: dose 5 mg/kg, route oral; settings: in vivo
# [6] = tested on: Mus musculus; experiment: Inhibition of MEK-mediated ERK T202/Y204 phosphorylation in human MDA-MB-231T cells xenografted in nude NCr mouse tumor at 30 mg/kg, po after 24 hrs by immunoblotting; type: functional
# [7] = tested on: Rattus norvegicus; experiment: Dose normalised AUC (0 to t) in Sprague-Dawley rat at 5 mg/kg, po; type: ADME, organism-based; set-up: dose 5 mg/kg, route oral; settings: in vivo
# [8] = Apparent permeability across MDCK cells; type: ADME, cell-based, Canis lupus familiaris; settings: dog
# [9] = tested on: Mus musculus; experiment: Inhibition of MEK-mediated ERK T202/Y204 phosphorylation in nude NCr mouse brain xenografted with human MDA-MB-231T cells at 30 mg/kg, po after 2 hrs by immunoblotting; type: functional
# [10] = Drug uptake in tumor of nude NCr mouse xenografted with human MDA-MB-231T cells at 30 mg/kg, po measured after 24 hrs by LC-MS analysis; type: ADME, organism-based, Neoplasm; set-up: dose 30 mg/kg, route oral; settings: read-out: Drug uptake
# [11] = Oral bioavailability in Sprague-Dawley rat at 5 mg/kg; type: ADME, organism-based; settings: in vivo
# [12] = Drug uptake in tumor of nude NCr mouse xenografted with human MDA-MB-231T cells at 30 mg/kg, po measured after 2 hrs by LC-MS analysis; type: ADME, organism-based, Neoplasm; set-up: dose 30 mg/kg, route oral; settings: read-out: Drug uptake
# [13] = tested on: Mus musculus; experiment: Inhibition of MEK-mediated ERK T202/Y204 phosphorylation in po dosed nude NCr mouse brain xenografted with human MDA-MB-231T cells from 2 to 24 hrs by immunoblotting; type: functional
# [14] = Drug uptake in brain of nude NCr mouse xenografted with human MDA-MB-231T cells at 30 mg/kg, po measured after 2 hrs by LC-MS analysis; type: ADME, organism-based; set-up: dose 30 mg/kg, route oral; settings: read-out: Drug uptake
# [15] = biological target: Dual specificity mitogen-activated protein kinase kinase 1 (Homo sapiens, UniProt Q02750)
# Description: Inhibition of MEK1-mediated ERK2 T202/Y204 phosphorylation using biotinylated MBP as substrate preincubated for 30 mins measured after 100 mins by cRAF-MEK-ERK enzyme coupled assay
# [16] = Plasma concentration in nude NCr mouse xenografted with human MDA-MB-231T cells at 30 mg/kg, po measured after 24 hrs by LC-MS analysis; type: ADME, organism-based; set-up: dose 30 mg/kg, route oral
# [17] = Plasma concentration in nude NCr mouse xenografted with human MDA-MB-231T cells at 30 mg/kg, po measured after 2 hrs by LC-MS analysis; type: ADME, organism-based; set-up: dose 30 mg/kg, route oral
# [18] = tested on: Mus musculus; experiment: Inhibition of MEK-mediated ERK T202/Y204 phosphorylation in human MDA-MB-231T cells xenografted in nude NCr mouse tumor at 30 mg/kg, po after 2 hrs by immunoblotting; type: functional
# [19] = biological target: Dual specificity mitogen-activated protein kinase kinase; MEK1/2 (Homo sapiens, UniProt P36507+Q02750)
# Description: Inhibition of MEK-mediated ERK T202/Y204 phosphorylation in human MDA-MB-231T cells after 1 hr by immunoblotting
# [20] = tested on: Mus musculus; experiment: Inhibition of MEK-mediated ERK T202/Y204 phosphorylation in nude NCr mouse brain xenografted with human MDA-MB-231T cells at 100 mg/kg, po after 24 hrs by immunoblotting; type: functional
# [21] = Drug uptake in tumor of nude NCr mouse xenografted with human MDA-MB-231T cells at 20 mg/kg, po measured after 24 hrs by LC-MS analysis; type: ADME, organism-based, Neoplasm; set-up: dose 20 mg/kg, route oral; settings: read-out: Drug uptake
# [22] = Protein binding in serum; type: ADME, cell-free
# [23] = Drug uptake in tumor of nude NCr mouse xenografted with human MDA-MB-231T cells at 10 mg/kg, po measured after 24 hrs by LC-MS analysis; type: ADME, organism-based, Neoplasm; set-up: dose 10 mg/kg, route oral; settings: read-out: Drug uptake
# [24] = tested on: Mus musculus; experiment: Inhibition of MEK-mediated ERK T202/Y204 phosphorylation in human MDA-MB-231T cells xenografted in po dosed nude NCr mouse tumor after 24 hrs by immunoblotting; type: functional
# [25] = Plasma concentration in nude NCr mouse xenografted with human MDA-MB-231T cells at 10 mg/kg, po measured after 24 hrs by LC-MS analysis; type: ADME, organism-based; set-up: dose 10 mg/kg, route oral
# [26] = Drug uptake in tumor of nude NCr mouse xenografted with human MDA-MB-231T cells at 100 mg/kg, po measured after 24 hrs by LC-MS analysis; type: ADME, organism-based, Neoplasm; set-up: dose 100 mg/kg, route oral; settings: read-out: Drug uptake
# [27] = Antitumor activity against human MDA-MB-231T cells xenografted in athymic nude NCr mouse assessed as tumor growth inhibition at 3 mg/kg administered qd for 14 days relative to control; type: functional; settings: 336 h, read-out: GI
# [28] = Drug metabolism in human liver microsomes at 15 uM after 30 mins; type: ADME, Microsome; settings: read-out: Drug metabolism
# [29] = Drug uptake in tumor of nude NCr mouse xenografted with human MDA-MB-231T cells at 5 mg/kg, po measured after 24 hrs by LC-MS analysis; type: ADME, organism-based; set-up: dose 5 mg/kg, route oral; settings: read-out: Drug uptake
# [30] = tested on: Mus musculus; experiment: Inhibition of MEK-mediated ERK T202/Y204 phosphorylation in human MDA-MB-231T cells xenografted in nude NCr mouse tumor at 20 mg/kg, po after 24 hrs by immunoblotting; type: functional
# [31] = Drug uptake in brain of nude NCr mouse xenografted with human MDA-MB-231T cells at 10 mg/kg, po measured after 24 hrs by LC-MS analysis; type: ADME, organism-based; set-up: dose 10 mg/kg, route oral; settings: read-out: Drug uptake
# [32] = tested on: Rattus norvegicus; experiment: Toxicity against po dosed rat assessed as adverse effect administered as subchronical dose; type: organism-based; settings: in vivo
# [33] = Drug uptake in brain of nude NCr mouse xenografted with human MDA-MB-231T cells at 20 mg/kg, po measured after 24 hrs by LC-MS analysis; type: ADME, organism-based; set-up: dose 20 mg/kg, route oral; settings: read-out: Drug uptake
# [34] = tested on: Salmonella typhimurium; experiment: Mutagenic activity in Salmonella typhimurium by Ames test; type: toxicity, organism-based; settings: salmonella enterica subsp. enterica serovar typhimurium
# [35] = Plasma concentration in nude NCr mouse xenografted with human MDA-MB-231T cells at 100 mg/kg, po measured after 24 hrs by LC-MS analysis; type: ADME, organism-based; set-up: dose 100 mg/kg, route oral
# [36] = Plasma concentration in nude NCr mouse xenografted with human MDA-MB-231T cells at 20 mg/kg, po measured after 24 hrs by LC-MS analysis; type: ADME, organism-based; set-up: dose 20 mg/kg, route oral
# [37] = Drug uptake in brain of nude NCr mouse xenografted with human MDA-MB-231T cells at 100 mg/kg, po measured after 24 hrs by LC-MS analysis; type: ADME, organism-based; set-up: dose 100 mg/kg, route oral; settings: read-out: Drug uptake
# [38] = Drug uptake in brain of nude NCr mouse xenografted with human MDA-MB-231T cells at 5 mg/kg, po measured after 24 hrs by LC-MS analysis; type: ADME, organism-based; set-up: dose 5 mg/kg, route oral; settings: read-out: Drug uptake
# [39] = tested on: Mus musculus; experiment: Inhibition of MEK-mediated ERK T202/Y204 phosphorylation in human MDA-MB-231T cells xenografted in nude NCr mouse tumor at 5 mg/kg, po after 24 hrs by immunoblotting; type: functional
# [40] = tested on: Mus musculus; experiment: Inhibition of MEK-mediated ERK T202/Y204 phosphorylation in nude NCr mouse brain xenografted with human MDA-MB-231T cells at 10 mg/kg, po after 24 hrs by immunoblotting; type: functional
# [41] = tested on: Brain; experiment: Drug metabolism in brain of nude NCr mouse xenografted with human MDA-MB-231T cells assessed as 3,4-difluoro-2-(2-fluoro-4-iodophenylamino)benzoic acid level at 100 mg/kg, po measured after 24 hrs by LC-MS analysis; type: ADME, organism-based; set-up: dose 100 mg/kg, route oral; settings: in vivo
# [42] = tested on: Mus musculus; experiment: Inhibition of MEK-mediated ERK T202/Y204 phosphorylation in human MDA-MB-231T cells xenografted in nude NCr mouse tumor at 10 mg/kg, po after 24 hrs by immunoblotting; type: functional
# [43] = tested on: Mus musculus; experiment: Inhibition of MEK-mediated ERK T202/Y204 phosphorylation in nude NCr mouse brain xenografted with human MDA-MB-231T cells at 20 mg/kg, po after 24 hrs by immunoblotting; type: functional
# [44] = tested on: Mus musculus; experiment: Inhibition of MEK-mediated ERK T202/Y204 phosphorylation in human MDA-MB-231T cells xenografted in nude NCr mouse tumor at 100 mg/kg, po after 24 hrs by immunoblotting; type: functional
# [45] = Plasma concentration in nude NCr mouse xenografted with human MDA-MB-231T cells at 5 mg/kg, po measured after 24 hrs by LC-MS analysis; type: ADME, organism-based; set-up: dose 5 mg/kg, route oral
# [46] = tested on: Mus musculus; experiment: Inhibition of MEK-mediated ERK T202/Y204 phosphorylation in nude NCr mouse brain xenografted with human MDA-MB-231T cells at 5 mg/kg, po after 24 hrs by immunoblotting; type: functional
# [47] = Antitumor activity against human MDA-MB-231T cells xenografted in athymic nude NCr mouse assessed as tumor growth inhibition at 1 mg/kg administered qd for 14 days relative to control; type: functional; settings: 336 h, read-out: GI
# [48] = Plasma concentration in athymic nude NCr mouse xenografted with human MDA-MB-231T cells at 3 mg/kg administered qd for 14 days; type: ADME, organism-based; set-up: dose 3 mg/kg
# Sequence of Dual specificity mitogen-activated protein kinase kinase 1 (Q02750 whole entry): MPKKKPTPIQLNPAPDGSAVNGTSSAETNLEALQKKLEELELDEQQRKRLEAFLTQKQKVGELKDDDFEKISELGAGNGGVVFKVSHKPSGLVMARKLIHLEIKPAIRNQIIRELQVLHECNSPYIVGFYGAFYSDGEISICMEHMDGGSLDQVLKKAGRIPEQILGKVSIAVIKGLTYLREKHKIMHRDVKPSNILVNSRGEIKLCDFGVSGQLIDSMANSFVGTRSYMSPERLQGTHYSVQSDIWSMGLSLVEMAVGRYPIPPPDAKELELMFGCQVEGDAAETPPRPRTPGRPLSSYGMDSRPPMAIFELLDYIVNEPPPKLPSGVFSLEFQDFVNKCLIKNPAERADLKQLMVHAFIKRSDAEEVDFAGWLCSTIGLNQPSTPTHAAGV
compound,measurement,setting,value
NCC1(O)CN(C(=O)c2ccc(F)c(F)c2Nc2ccc(I)cc2F)C1,CL/F,[1],12.6 mL/min/kg
same,inhibition in vivo at 30 mg/kg,[2],17%
same,"metabolised at 0.5 h, 15 µM",[3],16.2%
same,concentration at 24 h,[4],1240 nM
same,half-life,[5],9.1 h
same,inhibition in vivo at 30 mg/kg,[6],44%
same,AUCt/dose,[7],1.57 µM·h/mg/kg
same,Papp,[8],4.3 ×10⁻⁶ cm/s
same,inhibition in vivo at 30 mg/kg,[9],23%
same,concentration at 24 h,[10],26800 nM
same,bioavailability,[11],78%
same,concentration at 2 h,[12],7360 nM
same,ED50,[13],> 30 mg/kg
same,concentration at 2 h,[14],730 nM
same,IC50,[15],6.6 nM
same,concentration at 24 h,[16],30 nM
same,concentration at 2 h,[17],2400 nM
same,inhibition in vivo at 30 mg/kg,[18],27%
same,IC50,[19],57 nM
O=C(c1ccc(F)c(F)c1Nc1ccc(I)cc1F)N1CC(O)([C@@H]2CCCCN2)C1 [COBIMETINIB],inhibition in vivo at 100 mg/kg,[20],0%
same,concentration at 24 h,[21],3590 nM
same,Activity,[22],94%
same,concentration at 24 h,[23],1990 nM
same,ED90,[24],39.7 mg/kg
same,CL/F,[1],59.4 mL/min/kg
same,concentration at 24 h,[25],100 nM
same,concentration at 24 h,[26],22800 nM
same,"metabolised at 0.5 h, 15 µM",[3],22.4%
same,inhibition in vivo at 3 mg/kg,[27],93%
same,half-life,[5],6.1 h
same,"metabolised at 0.5 h, 15 µM",[28],13.8%
same,concentration at 24 h,[29],530 nM
same,inhibition in vivo at 20 mg/kg,[30],75%
same,concentration at 24 h,[31],< 4 nM
same,AUCt/dose,[7],0.35 µM·h/mg/kg
same,Papp,[8],10.5 ×10⁻⁶ cm/s
same,Activity,[32],Non-toxic
same,concentration at 24 h,[33],< 4 nM
same,Activity,[34],Non-toxic
same,concentration at 24 h,[35],120 nM
same,concentration at 24 h,[36],100 nM
same,bioavailability,[11],77%
same,concentration at 24 h,[37],220 nM
same,concentration at 24 h,[38],< 4 nM
same,inhibition in vivo at 5 mg/kg,[39],16%
same,inhibition in vivo at 10 mg/kg,[40],7%
same,Drug uptake,[41],Not Active
same,IC50,[15],0.9 nM
same,inhibition in vivo at 10 mg/kg,[42],45%
same,inhibition in vivo at 20 mg/kg,[43],2%
same,inhibition in vivo at 100 mg/kg,[44],87%
same,concentration at 24 h,[45],< 4 nM
same,inhibition in vivo at 5 mg/kg,[46],8%
same,inhibition in vivo at 1 mg/kg,[47],60%
same,concentration at 336 h,[48],130 nM
same,IC50,[19],0.2 nM
O=C(c1ccc(F)c(F)c1Nc1ccc(I)cc1F)N1CC(O)(CN2CCOCC2)C1,IC50,[15],1710 nM
same,IC50,[19],331 nM
NC(=O)C1(O)CN(C(=O)c2ccc(F)c(F)c2Nc2ccc(I)cc2F)C1,IC50,[15],220 nM
same,IC50,[19],81 nM
